In patent US10206862B2, “Supplement to support healthy hair, skin, and nails” (priority 2016, dated 2019):

Tests used:
[1] = test system: PGE2 release from UVB stressed keratinocytes; assay: PGE2 assay in UVB stressed keratinocytes; type: cell-based; details: telomerized human keratinocytes, UVB 15 mJ/cm^2, 24 hours treatment; PGE2 (pg/mL) normalized to ATP; FIG. 3
Protocol: Telomerized human keratinocytes are propgated in EpiLife® Media in CO2-incubator at 37° C. in T150 flasks (available from Corning®, Corning, N.Y., USA). […] The plates were incubated another 2 days until cell confluency reaches >80%. At this point, the cells were irradiated with a Bio-Sun™ UV with UVB light for a dose of 15 mJ/cm^2. The media was then switched with fresh medium prepared with the treatments. The cells were then incubated for 24 hours before harvest. At harvest, the media supernatant was collected and transferred to a deep well plate and frozen in −80° C. for later determination of PGE2 levels. PGE2 levels were measured from the media supernatants using the PGE2 Assay kit (available from Cisbio™, Bedford, Mass.) per manufacturer's directions. PGE2 levels here were normalized to the ATP measurements such that the final PGE2 values were recorded as PGE2 (pg/mL)/ATP level treatment compared to control. Typically, each data point is the average of 4 replicates.

[2] = test system: Antioxidant Response Element (ARE); assay: ARE reporter assay (ARE-32 luciferase reporter cell line); type: cell-based, rat; details: ARE32 (MCF7) luciferase reporter cells, 24 hours treatment; Nrf2 antioxidant response activation
Protocol: ARE activation was quantitated using the ARE-32 reporter cell line available from CXR-Biosciences as described in the ARE Assay below. ARE32 is a stable MCF7 cell line containing pGL8x-ARE (8 copies of the rat GST ARE linked to the luciferase gene) and pCDNA3.1, which contains the neomycin selectable marker. Selection was performed in the presence of G418 and resistant clones were isolated. Clones were screened for induction of luciferase in response to tBHQ (tert-Butylhydroquinone). The ARE32 cells are maintained routinely in the DMEM (phenol red free) containing: 10% FBS, 50 units/ml penicillin & 50 μg/ml streptomycin, 0.8 mg/ml G418. […] Cells were frozen in medium that contains 90% FBS and 10% dimethyl sulfoxide (DMSO). In a 96 well-plate, seed 1×10^4 cells/well in 100 μl DMEM containing 50 units/ml penicillin, 50 μg/ml streptomycin, 0.8 mg/ml G418 and 10% FBS. Next, incubate the cells at 37° C. in a 5% CO2 incubator for 24 hrs, and then replace the medium with 100 μl fresh media. Treat with test compounds at 2 μl per well, positive control was 25 μM TBHQ. (10 mM tBHQ of stock solution freshly prepared in DMSO). Add 100 μl of media after treatment for a final assay volume of 200 μL. Incubate the cells at 37° C. in CO2 incubator for another 24 hours. […]

keratinocytes = assay: Reduction in ATP depletion after peroxide stress (CellTiter-Glo); type: cell-based; details: 1 hour treatment, net luminescence = treatment counts minus vehicle control counts
Protocol: Hydrogen peroxide is a well-known ROS and is commonly used as a model to analyze the effects of various ROS. In this test, keratinocytes were cultured (passage <8) in T150 flasks using EpiLife® medium (Calcium Free and Phenol Red Free, supplemented with penicillin/streptomycin and keratinocytes growth supplement, Invitrogen™ cat# MEPICFPRF500). The keratinocytes were then plated in 24 well plates, 40,000 cells/well, 1 ml media. After 24 hours, the keratinocytes were treated with organic astaxanthin and astaxanthin in combination with Digestive Support Blend (see Example 1 above), Stress and Energy Support Blend (see Example 1 above), Reishi, or biotin for 1 hour. The keratinocytes were washed in PBS and ATP levels were measured using the CellTiter-Glo® Luminescent Cell Viability Assay (available from Promega, cat# G7571/2/3) per manufacturer's directions. Luminescence was measured on a SpectraMax® M3 (available from Molecular Devices, Sunnyvale, Calif., USA). Net luminescence (or net ATP) is calculated by subtracting the luminescence counts from the vehicle control from the luminescence counts from the treatment groups.

| Compound | PGE2 release from keratinocytes [1] | ARE - Fold Over Control [2] | Net ATP (keratinocytes) |
| --- | --- | --- | --- |
| O=C(O)CCCC[C@@H]1SC[C@@H]2NC(=O)N[C@@H]21 [Biotin] | reduce PGE2 | 1.71 Fold Over Control | 947 |
| CC1=C(/C=C/C(C)=C/C=C/C(C)=C/C=C/C=C(C)/C=C/C=C(C)/C=C/C2=C(C)C(=O)[C@@H](O)CC2(C)C)C(C)(C)C[C@H](O)C1=O [Organic Astaxanthin, Astaxanthin] | reduce PGE2 | 2.65 Fold Over Control | 1096 |
